The source of these data is ChEMBL document CHEMBL4334509, “Garcinol and Related Polyisoprenylated Benzophenones as Topoisomerase II Inhibitors: Biochemical and Molecular Modeling Studies” (J Nat Prod, 2019).

Series [1] deals with T1, DNA topoisomerase 2-alpha (Homo sapiens, UniProt P11388). The series is described as follows: Inhibition of human topoisomerase 2alpha-mediated relaxation of supercoiled pSG483 DNA at 12.5 to 200 uM after 30 mins by ethidium bromide staining based agarose gel electrophoresis method.
For series [2], the target named is T2, DNA topoisomerase 2-beta (Homo sapiens, UniProt Q02880). Briefly: Inhibition of human topoisomerase 2beta-mediated relaxation of supercoiled pSG483 DNA at 12.5 to 200 uM after 30 mins by ethidium bromide staining based agarose gel electrophoresis method.
T2 sequence (Q02880 whole entry): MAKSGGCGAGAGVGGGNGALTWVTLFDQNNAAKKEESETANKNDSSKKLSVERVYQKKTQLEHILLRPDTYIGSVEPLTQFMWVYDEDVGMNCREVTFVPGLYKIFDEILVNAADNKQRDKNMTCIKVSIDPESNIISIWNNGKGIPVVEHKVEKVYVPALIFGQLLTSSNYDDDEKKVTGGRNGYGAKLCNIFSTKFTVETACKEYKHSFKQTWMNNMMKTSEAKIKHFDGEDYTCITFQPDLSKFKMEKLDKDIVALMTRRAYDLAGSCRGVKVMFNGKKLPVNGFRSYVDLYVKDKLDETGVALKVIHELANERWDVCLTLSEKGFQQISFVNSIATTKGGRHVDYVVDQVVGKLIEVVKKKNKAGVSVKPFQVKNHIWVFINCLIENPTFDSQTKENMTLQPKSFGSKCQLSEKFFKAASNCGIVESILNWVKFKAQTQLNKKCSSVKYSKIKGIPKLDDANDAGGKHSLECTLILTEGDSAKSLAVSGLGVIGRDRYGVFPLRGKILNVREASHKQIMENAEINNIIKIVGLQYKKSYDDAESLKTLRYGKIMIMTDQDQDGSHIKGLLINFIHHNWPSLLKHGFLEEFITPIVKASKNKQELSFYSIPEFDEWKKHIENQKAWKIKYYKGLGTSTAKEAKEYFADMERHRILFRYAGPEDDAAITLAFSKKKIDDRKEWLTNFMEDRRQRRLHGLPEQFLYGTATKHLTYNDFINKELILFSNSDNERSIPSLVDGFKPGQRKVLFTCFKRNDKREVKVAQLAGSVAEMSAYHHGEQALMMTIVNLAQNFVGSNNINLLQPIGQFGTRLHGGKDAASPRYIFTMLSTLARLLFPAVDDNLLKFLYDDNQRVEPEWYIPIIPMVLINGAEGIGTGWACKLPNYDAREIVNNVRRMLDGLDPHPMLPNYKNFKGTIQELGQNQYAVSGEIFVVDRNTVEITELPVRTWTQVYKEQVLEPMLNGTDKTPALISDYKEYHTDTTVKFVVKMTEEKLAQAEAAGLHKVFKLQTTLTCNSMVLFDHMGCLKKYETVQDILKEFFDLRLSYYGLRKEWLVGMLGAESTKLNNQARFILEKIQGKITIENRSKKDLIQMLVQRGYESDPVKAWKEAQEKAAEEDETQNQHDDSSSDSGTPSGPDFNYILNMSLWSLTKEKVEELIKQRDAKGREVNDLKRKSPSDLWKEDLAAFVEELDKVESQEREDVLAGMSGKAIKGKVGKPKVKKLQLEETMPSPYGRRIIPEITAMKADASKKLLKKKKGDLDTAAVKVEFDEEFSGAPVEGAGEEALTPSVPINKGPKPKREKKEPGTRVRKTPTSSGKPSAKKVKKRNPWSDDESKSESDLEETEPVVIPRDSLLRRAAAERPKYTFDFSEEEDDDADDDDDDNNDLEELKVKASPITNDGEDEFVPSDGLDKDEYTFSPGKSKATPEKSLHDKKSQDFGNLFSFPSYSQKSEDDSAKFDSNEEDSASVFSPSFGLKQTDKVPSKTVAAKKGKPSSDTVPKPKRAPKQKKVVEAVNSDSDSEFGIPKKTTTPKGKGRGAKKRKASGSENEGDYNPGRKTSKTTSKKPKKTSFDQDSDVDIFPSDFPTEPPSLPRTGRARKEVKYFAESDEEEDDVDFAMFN
The target in series [3] is T1, DNA topoisomerase 2-alpha. Briefly: Inhibition of human topoisomerase 2alpha-mediated DNA cleavage at 12.5 to 200 uM using supercoiled pSG483 as substrate after 30 mins by ethidium bromide staining based gel electrophoresis method.
Series [4] concerns the target T2, DNA topoisomerase 2-beta. Briefly: Inhibition of human topoisomerase 2beta-mediated DNA cleavage at 12.5 to 200 uM using supercoiled pSG483 as substrate after 30 mins by ethidium bromide staining based gel electrophoresis method.
In series [5] the target is T1, DNA topoisomerase 2-alpha. Briefly: Mixed-type inhibition of topoisomerase 2alpha ATPase activity (unknown origin) assessed as apparent Vmax per mg protein at 20 uM using salmon sperm DNA as substrate measured every 30 secs for 90 mins in presence of ATP by pyruvate kinase/lactate dehydrogenase enzyme coupled assay (reference value: 136.7 +/- 14.7 mM/min).
Series [6] has as its target T1, DNA topoisomerase 2-alpha. Briefly: Inhibition of human topoisomerase 2alpha-mediated relaxation of supercoiled pSG483 DNA after 30 mins by ethidium bromide staining based agarose gel electrophoresis method.
The target of series [7] is T2, DNA topoisomerase 2-beta. The series is described as follows: Inhibition of human topoisomerase 2beta-mediated relaxation of supercoiled pSG483 DNA after 30 mins by ethidium bromide staining based agarose gel electrophoresis method.
Series [8] has as its target T1, DNA topoisomerase 2-alpha. Briefly: Poison activity at human topoisomerase 2alpha assessed as linear DNA formation at 12.5 to 200 uM after 30 mins by ethidium bromide staining based agarose gel electrophoresis method.
The next series relates to DNA. Briefly: Induction of plasmid DNA (unknown origin) intercalation at 7.81 to 500 uM after 30 mins by ethidium bromide staining based agarose gel electrophoresis method. The format is nucleic-acid assay.
Series [9] addresses T1, DNA topoisomerase 2-alpha. The series is described as follows: Mixed-type inhibition of topoisomerase 2alpha ATPase activity (unknown origin) assessed as apparent Vmax per mg protein at 25 uM using salmon sperm DNA as substrate measured every 30 secs for 90 mins in presence of ATP by pyruvate kinase/lactate dehydrogenase enzyme coupled assay (reference value: 136.7 +/- 14.7 mM/min).

Series [10] has as its target T1, DNA topoisomerase 2-alpha. The series is described as follows: Mixed-type inhibition of topoisomerase 2alpha ATPase activity (unknown origin) assessed as apparent Vmax per mg protein at 50 uM using salmon sperm DNA as substrate measured every 30 secs for 90 mins in presence of ATP by pyruvate kinase/lactate dehydrogenase enzyme coupled assay (reference value: 136.7 +/- 14.7 mM/min).

The target in series [11] is T2, DNA topoisomerase 2-beta. The series is described as follows: Inhibition of human topoisomerase 2beta-mediated DNA cleavage assessed as formation of nicking in DNA at 200 uM using supercoiled pSG483 as substrate after 30 mins by ethidium bromide based gel electrophoresis method.
Compound in series [12]: C=C(C)[C@H](CC=C(C)C)C[C@]12C[C@H](CC=C(C)C)C(C)(C)[C@](CC=C(C)C)(C(=O)C(C(=O)c3ccc(O)c(O)c3)=C1O)C2=O
The series is described as follows: (§1) Mixed-type inhibition of topoisomerase 2alpha ATPase activity (unknown origin) assessed as apparent Km at 10 uM using salmon sperm DNA as substrate measured every 30 secs for 90 mins in presence of ATP by pyruvate kinase/lactate dehydrogenase enzyme coupled assay (reference value: 0.4 +/- 0.1 mM). As to conditions: Homo sapiens.

Compound in series [13]: CC(C)=CCC/C(C)=C/C[C@@]12C[C@H](CC=C(C)C)C(C)(C)[C@@](CC=C(C)C)(C(=O)C(C(=O)c3ccc(O)c(O)c3)=C1O)C2=O
The series is described as §1. The conditions noted are these: Homo sapiens.

Compound in series [14]: CC(C)=CCC[C@@]1(C)[C@H](CC=C(C)C)C[C@]2(CC=C(C)C)C(=O)[C@@]1(CC=C(C)C)C(=O)C(C(=O)c1ccc(O)c(O)c1)=C2O
The series is described as §1. As to conditions: Homo sapiens.

Compound in series [15]: C=C(C)[C@H](CC=C(C)C)C[C@]12C[C@H](CC=C(C)C)C(C)(C)[C@](CC=C(C)C)(C(=O)C(C(=O)c3ccc(O)c(O)c3)=C1O)C2=O
Briefly: (§2) Mixed-type inhibition of topoisomerase 2alpha ATPase activity (unknown origin) assessed as apparent Km at 25 uM using salmon sperm DNA as substrate measured every 30 secs for 90 mins in presence of ATP by pyruvate kinase/lactate dehydrogenase enzyme coupled assay (reference value: 0.4 +/- 0.1 mM). The conditions noted are these: Homo sapiens.

Compound in series [16]: CC(C)=CCC[C@@]1(C)[C@H](CC=C(C)C)C[C@]2(CC=C(C)C)C(=O)[C@@]1(CC=C(C)C)C(=O)C(C(=O)c1ccc(O)c(O)c1)=C2O
Described as §2. The conditions noted are these: Homo sapiens.

Compound in series [17]: C=C(C)[C@H](CC=C(C)C)C[C@]12C[C@H](CC=C(C)C)C(C)(C)[C@](CC=C(C)C)(C(=O)C(C(=O)c3ccc(O)c(O)c3)=C1O)C2=O
The series is described as follows: Mixed-type inhibition of topoisomerase 2alpha ATPase activity (unknown origin) assessed as apparent Km at 50 uM using salmon sperm DNA as substrate measured every 30 secs for 90 mins in presence of ATP by pyruvate kinase/lactate dehydrogenase enzyme coupled assay (reference value: 0.4 +/- 0.1 mM). The conditions noted are these: Homo sapiens.

Compound in series [18]: CC(C)=CCC/C(C)=C/C[C@@]12C[C@H](CC=C(C)C)C(C)(C)[C@@](CC=C(C)C)(C(=O)C(C(=O)c3ccc(O)c(O)c3)=C1O)C2=O
The series is described as follows: (§3) Mixed-type inhibition of topoisomerase 2alpha ATPase activity (unknown origin) assessed as apparent Km at 5 uM using salmon sperm DNA as substrate measured every 30 secs for 90 mins in presence of ATP by pyruvate kinase/lactate dehydrogenase enzyme coupled assay (reference value: 0.4 +/- 0.1 mM). The conditions noted are these: Homo sapiens.

Compound in series [19]: CC(C)=CCC[C@@]1(C)[C@H](CC=C(C)C)C[C@]2(CC=C(C)C)C(=O)[C@@]1(CC=C(C)C)C(=O)C(C(=O)c1ccc(O)c(O)c1)=C2O
Described as §3. As to conditions: Homo sapiens.

Compound in series [20]: CC(C)=CCC/C(C)=C/C[C@@]12C[C@H](CC=C(C)C)C(C)(C)[C@@](CC=C(C)C)(C(=O)C(C(=O)c3ccc(O)c(O)c3)=C1O)C2=O
Briefly: Mixed-type inhibition of topoisomerase 2alpha ATPase activity (unknown origin) assessed as apparent Km at 20 uM using salmon sperm DNA as substrate measured every 30 secs for 90 mins in presence of ATP by pyruvate kinase/lactate dehydrogenase enzyme coupled assay (reference value: 0.4 +/- 0.1 mM). As to conditions: Homo sapiens.

Active and inactive are the calls of the source. The rule behind the calls is not given here.

In the case of `CC(C)=CCC/C(C)=C/C[C@@]12C[C@H](CC=C(C)C)C(C)(C)[C@@](CC=C(C)C)(C(=O)C(C(=O)c3ccc(O)c(O)c3)=C1O)C2=O`, the inhibition entry (in series [1]; at DNA topoisomerase 2-beta [2]; in [3]; at DNA topoisomerase 2-beta [4]) was “Active” each time. In addition, the Vmax(app) in series [5] was determined as 53.6 mM/min.
For `C=C(C)[C@H](CC=C(C)C)C[C@]12C[C@H](CC=C(C)C)C(C)(C)[C@](CC=C(C)C)(C(=O)C(C(=O)c3ccc(O)c(O)c3)=C1O)C2=O`, the IC50 (in series [6]; against DNA topoisomerase 2-beta [7]) was 101 µM in each case. The outcome (in [8]; in the series with DNA) was inactive. Further, the Vmax(app) in series [9] came to 94 mM/min; in series [10], 84.7 mM/min.
As to `CC(C)=CCC[C@@]1(C)[C@H](CC=C(C)C)C[C@]2(CC=C(C)C)C(=O)[C@@]1(CC=C(C)C)C(=O)C(C(=O)c1ccc(O)c(O)c1)=C2O`, the inhibition entry (in series [1]; at DNA topoisomerase 2-beta [2]; in series [3]; on DNA topoisomerase 2-beta [4]) was “Active” throughout. Besides, the Vmax(app) in series [9] came out at 93 mM/min.
With `CC(C)=CCC[C@@]1(C)[C@H](CC=C(C)C)C[C@@]2(CC=C(C)C)C(=O)c3c(oc4cc(O)c(O)cc4c3=O)[C@]1(CC=C(C)C)C2=O`, the inhibition entry (in series [1]; at DNA topoisomerase 2-beta [2]; in series [3]; on DNA topoisomerase 2-beta [4]) was “Active” in each case.
Turning to `CC(C)=CCC/C(C)=C/C[C@]12C[C@H](CC=C(C)C)C(C)(C)[C@](CC=C(C)C)(C1=O)c1oc3cc(O)c(O)cc3c(=O)c1C2=O`, the inhibition result (in [1]; at DNA topoisomerase 2-beta [2]) was “Active” throughout. For the same molecule, the inhibition entry on DNA topoisomerase 2-beta [11] was “inactive”.
Take `CC(C)=CCC[C@@]1(C)[C@H](CC=C(C)C)C[C@]2(CC=C(C)C)C(=O)[C@@]1(CC=C(C)C)C(=O)c1c2oc2cc(O)c(O)cc2c1=O`: the inhibition result (in [1]; at DNA topoisomerase 2-beta [2]; in series [3]; on DNA topoisomerase 2-beta [4]) was “Active” throughout.

B1: DNA topoisomerase 2-alpha (Homo sapiens), P11388 (protein)
chain: MEVSPLQPVNENMQVNKIKKNEDAKKRLSVERIYQKKTQLEHILLRPDTYIGSVELVTQQMWVYDEDVGINYREVTFVPGLYKIFDEILVNAADNKQRDPKMSCIRVTIDPENNLISIWNNGKGIPVVEHKVEKMYVPALIFGQLLTSSNYDDDEKKVTGGRNGYGAKLCNIFSTKFTVETASREYKKMFKQTWMDNMGRAGEMELKPFNGEDYTCITFQPDLSKFKMQSLDKDIVALMVRRAYDIAGSTKDVKVFLNGNKLPVKGFRSYVDMYLKDKLDETGNSLKVIHEQVNHRWEVCLTMSEKGFQQISFVNSIATSKGGRHVDYVADQIVTKLVDVVKKKNKGGVAVKAHQVKNHMWIFVNALIENPTFDSQTKENMTLQPKSFGSTCQLSEKFIKAAIGCGIVESILNWVKFKAQVQLNKKCSAVKHNRIKGIPKLDDANDAGGRNSTECTLILTEGDSAKTLAVSGLGVVGRDKYGVFPLRGKILNVREASHKQIMENAEINNIIKIVGLQYKKNYEDEDSLKTLRYGKIMIMTDQDQDGSHIKGLLINFIHHNWPSLLRHRFLEEFITPIVKVSKNKQEMAFYSLPEFEEWKSSTPNHKKWKVKYYKGLGTSTSKEAKEYFADMKRHRIQFKYSGPEDDAAISLAFSKKQIDDRKEWLTNFMEDRRQRKLLGLPEDYLYGQTTTYLTYNDFINKELILFSNSDNERSIPSMVDGLKPGQRKVLFTCFKRNDKREVKVAQLAGSVAEMSSYHHGEMSLMMTIINLAQNFVGSNNLNLLQPIGQFGTRLHGGKDSASPRYIFTMLSSLARLLFPPKDDHTLKFLYDDNQRVEPEWYIPIIPMVLINGAEGIGTGWSCKIPNFDVREIVNNIRRLMDGEEPLPMLPSYKNFKGTIEELAPNQYVISGEVAILNSTTIEISELPVRTWTQTYKEQVLEPMLNGTEKTPPLITDYREYHTDTTVKFVVKMTEEKLAEAERVGLHKVFKLQTSLTCNSMVLFDHVGCLKKYDTVLDILRDFFELRLKYYGLRKEWLLGMLGAESAKLNNQARFILEKIDGKIIIENKPKKELIKVLIQRGYDSDPVKAWKEAQQKVPDEEENEESDNEKETEKSDSVTDSGPTFNYLLDMPLWYLTKEKKDELCRLRNEKEQELDTLKRKSPSDLWKEDLATFIEELEAVEAKEKQDEQVGLPGKGGKAKGKKTQMAEVLPSPRGQRVIPRITIEMKAEAEKKNKKKIKNENTEGSPQEDGVELEGLKQRLEKKQKREPGTKTKKQTTLAFKPIKKGKKRNPWSDSESDRSSDESNFDVPPRETEPRRAATKTKFTMDLDSDEDFSDFDEKTDDEDFVPSDASPPKTKTSPKLSNKELKPQKSVVSDLEADDVKGSVPLSSSPPATHFPDETEITNPVPKKNVTVKKTAAKSQSSTSTTGAKKRAAPKGTKRDPALNSGVSQKPDPAKTKNRRKRKPSTSDDSDSNFEKIVSKAVTSKKSKGESDDFHMDFDSAVAPRAKSVRAKKPIKYLEESDEDDLF
Regarding B1, the Michaelis constant (Km) in series [12] was 300 µM; in series [13], 900 µM; in series [14], 800 µM; in series [15], 700 µM; in series [16] it was 1000 µM; in series [17] it was 800 µM. Besides, the values for the Michaelis-Menten constant (Km) in series [18], in [19] and in series [20] were 600 µM, 600 µM and 1600 µM, respectively.

The IC50 is the concentration that gives 50% inhibition. Lower therefore signals higher potency. As usually defined, the Km is the substrate concentration at which the rate is half of its maximum.
